Test results reported in US20050032138A1 (priority 2003, published 2005).
Read-outs that look alike come from different tables or passages of the source.

What was measured:
PrPc [1] = biological target: PrPc (Mesocricetus auratus, UniProt P04273)
PrPc and PrPsc [2] = system: PrPc and PrPsc
PrPc [3] = biological target: T1, PrPc (Homo sapiens, UniProt P04156)
PrPc [4] = biological target: T1, PrPc; remark: listed apart in the source
PrPc and PrPsc [5] = biological target: PrPc and PrPsc (Homo sapiens, UniProt P04156)
[6] = Fast Red staining with 3F4, red/pink beads indicate bound native PrPc or antibody, scrapie-infected hamster brain homogenate

PrPc (Mesocricetus auratus, UniProt P04273), sequence (P04273 23-254 limits assumed): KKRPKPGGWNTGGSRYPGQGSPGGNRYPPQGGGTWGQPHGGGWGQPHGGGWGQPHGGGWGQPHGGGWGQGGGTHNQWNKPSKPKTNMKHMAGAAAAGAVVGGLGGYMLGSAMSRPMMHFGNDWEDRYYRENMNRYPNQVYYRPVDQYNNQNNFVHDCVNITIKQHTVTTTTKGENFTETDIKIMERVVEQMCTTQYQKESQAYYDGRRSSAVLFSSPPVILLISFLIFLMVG

## SVYQLDA
PrPc [1]
  Bead Color: White
PrPc and PrPsc [2]
  Intensity of Chemiluminescent Signal after Denaturing: Medium

## KWATRYA
PrPc [1]
  Bead Color: White
PrPc and PrPsc [2]
  Intensity of Chemiluminescent Signal after Denaturing: Strong

## VARENIA
PrPc [1]
  Bead Color: White
PrPc and PrPsc [2]
  Intensity of Chemiluminescent Signal after Denaturing: Strong

## EWWETV
PrPc [1]
  Bead Color: White
PrPc and PrPsc [2]
  Intensity of Chemiluminescent Signal after Denaturing: Medium

## HWK
PrPres
  Beads identified as PrPsc-specific binders (film 2 signal from PrPres after PK): specific for PrPsc

## RWD
PrPc [1]; [6]
  Bead Color: Bright pink
PrPc and PrPsc [2]
  Intensity of Chemiluminescent Signal after Denaturing: Strong

## FQGTREA
PrPc [1]
  Bead Color: White
PrPc and PrPsc [2]
  Intensity of Chemiluminescent Signal after Denaturing: Strong

## FPK
PrPres
  Beads identified as PrPsc-specific binders (film 2 signal from PrPres after PK): specific for PrPsc

## TGTNRYA
PrPc [1]
  Bead Color: White
PrPc and PrPsc [2]
  Intensity of Chemiluminescent Signal after Denaturing: Strong

## DVR
PrPc [1]
  Bead Color: White
PrPc and PrPsc [2]
  Intensity of Chemiluminescent Signal after Denaturing: Strong
PrPc [3]
  Bead colour under the microscope following on-bead detection: white
PrPc [4]
  Signal on the first support: weak
PrPc and PrPsc [5]
  Isoform binding preference concluded from first and second support signals: preferentially binds PrPsc
  Signal on the second support following denaturation and transfer: strong

## LLR
PrPres
  Beads identified as PrPsc-specific binders (film 2 signal from PrPres after PK): specific for PrPsc

## WEE
PrPres
  Beads identified as PrPsc-specific binders (film 2 signal from PrPres after PK): specific for PrPsc

## NSTKFDA
PrPc [1]
  Bead Color: Pink
PrPc and PrPsc [2]
  Intensity of Chemiluminescent Signal after Denaturing: Strong

## EHATYRA
PrPc [1]
  Bead Color: White
PrPc and PrPsc [2]
  Intensity of Chemiluminescent Signal after Denaturing: Strong

## RWEREDA
PrPc [1]
  Bead Color: Pink
PrPc and PrPsc [2]
  Intensity of Chemiluminescent Signal after Denaturing: Strong

## YID
PrPc [1]; [6]
  Bead Color: Bright pink
PrPc and PrPsc [2]
  Intensity of Chemiluminescent Signal after Denaturing: Strong
